The values that follow come from ChEMBL document CHEMBL1641430, “Cholinergic and neuroprotective drugs for the treatment of Alzheimer and neuronal vascular diseases. II. Synthesis, biological assessment, and molecular modelling of new tacrine analogues from highly substituted 2-aminopyridine-3-carbonitriles” (Bioorg Med Chem, 2011).

Active and inactive are the calls of the source. The rule behind the calls is not given here. A value given as a limit tells only on which side of the number the result lay.

For orientation: IC50 means the midpoint of a concentration-inhibition curve.

For assay [1], the target named is T1, Acetylcholinesterase (Bos taurus, UniProt P23795).
T1 sequence (P23795 whole entry): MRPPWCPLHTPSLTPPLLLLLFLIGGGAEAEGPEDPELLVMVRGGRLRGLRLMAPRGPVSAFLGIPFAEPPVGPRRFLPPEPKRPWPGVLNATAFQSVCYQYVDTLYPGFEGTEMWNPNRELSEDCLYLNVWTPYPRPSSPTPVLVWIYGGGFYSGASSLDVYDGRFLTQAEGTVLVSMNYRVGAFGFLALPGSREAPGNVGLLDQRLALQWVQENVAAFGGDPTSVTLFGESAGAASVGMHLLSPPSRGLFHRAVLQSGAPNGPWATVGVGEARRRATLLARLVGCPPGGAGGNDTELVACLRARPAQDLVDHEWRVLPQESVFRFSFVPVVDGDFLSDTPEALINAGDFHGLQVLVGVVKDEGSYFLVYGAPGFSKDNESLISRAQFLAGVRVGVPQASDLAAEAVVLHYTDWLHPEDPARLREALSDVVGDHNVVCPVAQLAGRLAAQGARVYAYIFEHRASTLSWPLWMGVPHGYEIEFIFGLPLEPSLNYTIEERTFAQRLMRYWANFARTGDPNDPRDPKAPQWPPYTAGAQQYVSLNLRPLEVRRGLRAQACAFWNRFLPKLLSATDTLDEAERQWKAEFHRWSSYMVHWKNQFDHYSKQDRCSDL
Description: Inhibition of bovine erythrocytes AChE by Ellman's method

In the next assay the target is Cholinesterase (Equus caballus, UniProt P81908).
Chain of Cholinesterase (P81908 whole entry): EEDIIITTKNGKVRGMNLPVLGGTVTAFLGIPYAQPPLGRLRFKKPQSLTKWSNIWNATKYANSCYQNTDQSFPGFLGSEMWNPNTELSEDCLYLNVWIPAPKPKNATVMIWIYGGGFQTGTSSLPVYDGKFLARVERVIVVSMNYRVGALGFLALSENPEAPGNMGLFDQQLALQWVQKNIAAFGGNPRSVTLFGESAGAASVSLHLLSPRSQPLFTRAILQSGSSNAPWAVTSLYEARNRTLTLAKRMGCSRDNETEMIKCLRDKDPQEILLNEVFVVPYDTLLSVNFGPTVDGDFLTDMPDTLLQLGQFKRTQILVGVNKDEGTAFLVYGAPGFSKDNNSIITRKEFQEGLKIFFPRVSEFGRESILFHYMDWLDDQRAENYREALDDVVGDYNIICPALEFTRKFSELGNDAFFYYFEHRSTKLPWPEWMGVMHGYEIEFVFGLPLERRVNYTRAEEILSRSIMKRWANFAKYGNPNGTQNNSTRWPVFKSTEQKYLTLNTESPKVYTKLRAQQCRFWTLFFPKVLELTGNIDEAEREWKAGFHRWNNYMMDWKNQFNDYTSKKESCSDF
Assay [2] has as its target Acetylcholinesterase (Electrophorus electricus, UniProt O42275).
Description: Inhibition of Electrophorus electricus AChE by Ellman's method
Assay [3] relates to SH-SY5Y. Nature of the assay: Neuroprotection against rotenone/oligomycin-A-indced human SH-SY5Y cell death assessed as protective effect at 1 uM after 2 hrs by MTT assay. Format: functional. (In general: Formazan colour is commonly taken as a measure of viable cells.)
Assay [4] deals with SH-SY5Y. The assay is described as follows: Neuroprotection against okadaic acid-induced human SH-SY5Y cell death assessed as reduction in LDH release at 0.1 to 1 uM relative to control. Details: scale not given: the % may be the effect or the level left. It is filed as functional. For orientation: LDH leaks from cells whose membrane has failed.
For assay [5], the system named is SH-SY5Y. Nature of the assay: Neuroprotection against okadaic acid-induced human SH-SY5Y cell death assessed as reduction in LDH release at 0.3 uM relative to control. Format: functional. Details: scale not given: the % may be the effect or the level left.
Assay [6] addresses Acetylcholinesterase (Homo sapiens) (UniProt P22303). Nature of the assay: Antagonist activity at human nAChR in human SH-SY5Y cells assessed as inhibition of acetylcholine-induced cytosolic Ca2+ signal at 0.3 to 100 uM. It is filed as functional, cell-based.
Assay [7] relates to SH-SY5Y. Nature of the assay: Neuroprotection against okadaic acid-induced human SH-SY5Y cell death assessed as reduction in cell death at 0.1 to 1 uM. Format: functional, cell-based.
Assay [8] has as its target Acetylcholinesterase (Homo sapiens) (UniProt P22303). The assay is described as follows: Antagonist activity at human nAChR in human SH-SY5Y cells assessed as inhibition of 70 mM K+ induced cytosolic Ca2+ signal at 0.3 to 100 uM. Format: functional, cell-based.

Chain of Acetylcholinesterase (Electrophorus electricus, UniProt O42275) (O42275 whole entry): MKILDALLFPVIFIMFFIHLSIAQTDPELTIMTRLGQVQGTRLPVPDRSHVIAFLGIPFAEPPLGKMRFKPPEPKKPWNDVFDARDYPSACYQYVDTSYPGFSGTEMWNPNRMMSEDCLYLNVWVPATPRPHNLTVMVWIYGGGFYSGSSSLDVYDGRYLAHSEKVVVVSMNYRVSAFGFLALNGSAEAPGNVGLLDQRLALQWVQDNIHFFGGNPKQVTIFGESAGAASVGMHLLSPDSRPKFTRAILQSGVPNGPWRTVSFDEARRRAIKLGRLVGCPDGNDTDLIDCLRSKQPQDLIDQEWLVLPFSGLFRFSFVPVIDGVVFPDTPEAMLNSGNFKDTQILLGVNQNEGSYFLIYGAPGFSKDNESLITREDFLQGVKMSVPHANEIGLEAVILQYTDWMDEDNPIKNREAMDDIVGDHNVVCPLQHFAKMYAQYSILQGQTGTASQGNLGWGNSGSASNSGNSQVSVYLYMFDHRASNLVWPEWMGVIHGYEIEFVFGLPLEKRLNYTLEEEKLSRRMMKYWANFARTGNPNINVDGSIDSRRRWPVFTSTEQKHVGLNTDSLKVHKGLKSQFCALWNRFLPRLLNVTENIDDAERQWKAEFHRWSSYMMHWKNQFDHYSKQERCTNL
Chain of Acetylcholinesterase (Homo sapiens) (P22303 whole entry): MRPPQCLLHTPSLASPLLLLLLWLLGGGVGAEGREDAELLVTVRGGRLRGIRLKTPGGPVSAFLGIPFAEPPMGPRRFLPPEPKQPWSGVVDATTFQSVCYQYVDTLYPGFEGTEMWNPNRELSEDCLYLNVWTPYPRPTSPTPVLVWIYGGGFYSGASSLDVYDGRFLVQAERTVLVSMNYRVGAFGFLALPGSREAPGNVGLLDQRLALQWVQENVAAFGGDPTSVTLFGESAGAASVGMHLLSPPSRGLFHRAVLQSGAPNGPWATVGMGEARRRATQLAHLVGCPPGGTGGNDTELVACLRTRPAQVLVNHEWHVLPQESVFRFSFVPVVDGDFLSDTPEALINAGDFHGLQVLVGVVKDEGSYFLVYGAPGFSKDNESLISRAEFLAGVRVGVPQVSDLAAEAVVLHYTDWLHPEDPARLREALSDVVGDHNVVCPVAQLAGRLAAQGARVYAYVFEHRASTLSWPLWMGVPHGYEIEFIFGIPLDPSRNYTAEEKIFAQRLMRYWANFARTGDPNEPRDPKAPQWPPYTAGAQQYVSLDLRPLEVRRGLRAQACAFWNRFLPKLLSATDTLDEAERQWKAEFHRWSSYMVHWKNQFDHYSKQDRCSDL

As for `CCOc1nc2nc3c(c(N)c2cc1C#N)CCCC3`, the values for the IC50 at Acetylcholinesterase [1], against Cholinesterase and on Acetylcholinesterase [2] were 1 µM, > 30 µM and 0.05 µM, respectively. Moreover, the Activity in the assay on SH-SY5Y [3] was 29%.
In the same order, the values of `C#CCNc1nc2nc3c(c(N)c2cc1C#N)CCCC3` are 1.53 µM, 2.6 µM, 0.03 µM and 20%.
In the case of `N#Cc1c(Cl)nc2nc3c(c(N)c2c1-c1ccccc1)CCCC3`, the 50% inhibitory concentration (IC50) was > 100 µM against Acetylcholinesterase [1], > 30 µM on Cholinesterase and > 30 µM against Acetylcholinesterase [2]. Moreover, the Activity in the assay on SH-SY5Y [3] is listed as 8%.
Consider `COc1nc2nc3c(c(N)c2cc1C#N)CCCC3`, for which the half-inhibitory concentration (IC50) at Acetylcholinesterase [1] amounted to 1.6 µM; on Cholinesterase, 9.6 µM; against Acetylcholinesterase [2] it was 0.06 µM. The Activity came to 49% in the assay with SH-SY5Y [4], 65% in the assay on SH-SY5Y [5] and 23% with SH-SY5Y [3]. In addition, the inhibition result in assay [6] and in [8] was “inactive” throughout. The outcome in the assay on SH-SY5Y [7] was Active.
On to `N#Cc1cc2c(N)c3c(nc2nc1N1CCCC1)CCCC3`, for which the IC50 against Acetylcholinesterase [1] was found to be 0.16 µM; on Cholinesterase, 5.6 µM; at Acetylcholinesterase [2], 0.043 µM. For the same molecule, the Activity in the assay on SH-SY5Y [3] was 29%.
For `CC(=O)N[C@@H](CS)C(=O)O` [ACETYLCYSTEINE], in the assay with SH-SY5Y [3], the Activity was determined as 33%.
In the case of `COc1nc2nc3c(c(N)c2cc1C#N)CN(Cc1ccccc1)CC3`, the half-maximal inhibitory concentration (IC50) was 5 µM at Acetylcholinesterase [1], > 100 µM on Cholinesterase and 0.35 µM against Acetylcholinesterase [2]. Also, in the assay on SH-SY5Y [3], the Activity is listed as 11%.
In the same order, the values of `CN(C)c1nc2nc3c(c(N)c2c(-c2ccccc2)c1C#N)CCCC3` are 4.4 µM, 7.5 µM, 0.09 µM and 3%.
On to `N#Cc1cc2c(N)c3c(nc2nc1Cl)CCCC3`, for which the values for the IC50 on Acetylcholinesterase [1], against Cholinesterase and on Acetylcholinesterase [2] were > 100 µM, > 30 µM and 5 µM, respectively. In addition, the Activity in the assay on SH-SY5Y [3] amounted to 4%.
As to `COc1nc2nc3c(c(N)c2c(-c2ccccc2)c1C#N)CCCC3`, the values for the IC50 on Acetylcholinesterase [1], at Cholinesterase and against Acetylcholinesterase [2] were 5 µM, 5.1 µM and 0.08 µM, respectively. Also, the Activity in the assay with SH-SY5Y [3] is listed as 12%.
Taken in the same sequence, the figures for `CN(C)c1nc2nc3c(c(N)c2cc1C#N)CCCC3` were 0.1 µM, 5.2 µM, 0.014 µM and 6%.
In the same order, the values of `N#Cc1cc2c(N)c3c(nc2nc1N1CCCCC1)CCCC3` are 1 µM, 3.6 µM, 0.025 µM and 19%.
Consider `N#Cc1cc2c(N)c3c(nc2nc1Cl)CCN(Cc1ccccc1)C3`, for which the results for the IC50 against Acetylcholinesterase [1], against Cholinesterase and on Acetylcholinesterase [2] were > 100 µM, > 100 µM and 0.35 µM, respectively. In addition, the Activity in the assay on SH-SY5Y [3] is 20%.
